“Also recorded” adds a separate entry of the source. Marks after values point to notes of the source that are not given here.
Assays:
[1] = system: ML-2; assay: Apoptosis assay AnnexinV/7-AAD; format: cell-based; settings: 30 μM, 24 h
[2] = system: ML-2; assay: Cell viability; format: cell-based; settings: 30 μM, 72 h
[3] = system: Molm-13; assay: Cell viability; format: cell-based; settings: 30 μM, 72 h
[4] = system: Molm-13; assay: Apoptosis assay AnnexinV/7-AAD; format: cell-based; settings: 30 μM, 24 h
[5] = target: human G2A (Homo sapiens, UniProt Q9UNW8); settings: compared with T-10418; 15 min after addition
Target sequence in this assay (P32121 whole entry partner, one chain of several): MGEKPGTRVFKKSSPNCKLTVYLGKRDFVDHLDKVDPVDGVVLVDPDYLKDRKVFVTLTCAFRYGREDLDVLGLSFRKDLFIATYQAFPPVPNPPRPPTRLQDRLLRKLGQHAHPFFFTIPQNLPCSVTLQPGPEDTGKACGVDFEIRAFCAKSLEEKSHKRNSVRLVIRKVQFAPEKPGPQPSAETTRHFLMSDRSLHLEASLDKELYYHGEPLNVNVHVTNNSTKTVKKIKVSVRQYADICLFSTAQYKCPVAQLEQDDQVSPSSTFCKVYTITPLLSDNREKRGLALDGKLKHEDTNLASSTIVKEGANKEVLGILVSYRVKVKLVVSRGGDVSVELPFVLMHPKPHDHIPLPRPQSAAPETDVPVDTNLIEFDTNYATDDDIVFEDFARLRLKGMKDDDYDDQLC

[6] = system: capsaicin-induced TRPV1 responses in mouse primary sensory neurons; assay: Calcium-imaging-based TRPV1 sensitization assay; format: cell-based
[7] = system: ML-2 cells; assay: IP-One assay in AML cells; format: cell-based; settings: 90 minutes stimulation
[8] = system: CHO-K1 cells overexpressing only GNA11 but not G2A; settings: control cells without G2A; ONC compounds at ≥ 30 μM
[9] = system: Molm-13 cells; assay: IP-One assay in AML cells; format: cell-based; settings: 90 minutes stimulation
[10] = Aqueous solubility; settings: PBS with 1% DMSO, pH 7.4, aqueous solubility, PBS buffer
[11] = target: T1, human G2A (Homo sapiens, UniProt Q9UNW8); settings: ratio of EC50 values
T1 sequence (Q9UNW8 1-380): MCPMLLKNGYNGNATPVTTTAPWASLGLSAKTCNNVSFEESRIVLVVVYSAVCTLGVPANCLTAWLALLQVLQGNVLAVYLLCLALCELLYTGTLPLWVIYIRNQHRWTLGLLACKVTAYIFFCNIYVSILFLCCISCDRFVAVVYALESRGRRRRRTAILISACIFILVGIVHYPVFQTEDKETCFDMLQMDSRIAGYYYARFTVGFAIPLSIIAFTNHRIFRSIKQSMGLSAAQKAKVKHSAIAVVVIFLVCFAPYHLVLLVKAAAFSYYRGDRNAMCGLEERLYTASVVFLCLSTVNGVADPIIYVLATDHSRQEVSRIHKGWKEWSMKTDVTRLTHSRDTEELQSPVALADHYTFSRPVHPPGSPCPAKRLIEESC

[12] = target: GPR1 (Homo sapiens, UniProt P46091); format: cell-based; settings: 60 μM, no endogenous ligand applied
Chain of GPR1 (P46091 whole entry): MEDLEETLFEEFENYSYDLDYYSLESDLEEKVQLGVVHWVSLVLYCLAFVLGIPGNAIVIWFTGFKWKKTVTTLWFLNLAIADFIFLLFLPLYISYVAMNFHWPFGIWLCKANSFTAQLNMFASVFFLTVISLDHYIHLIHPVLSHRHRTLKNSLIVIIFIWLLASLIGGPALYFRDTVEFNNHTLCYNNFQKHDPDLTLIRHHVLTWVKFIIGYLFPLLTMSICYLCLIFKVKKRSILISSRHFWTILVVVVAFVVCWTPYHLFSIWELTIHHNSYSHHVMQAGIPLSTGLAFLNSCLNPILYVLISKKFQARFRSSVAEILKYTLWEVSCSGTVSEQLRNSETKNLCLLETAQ
Chain of GPR1 (P32121 whole entry partner): as the sequence (P32121 whole entry partner, one chain of several) above

[13] = Pharmacokinetics in male C57Bl/6N mice
[14] = Metabolic stability in rat liver microsomes; settings: Sprague–Dawley rat liver microsomes
[15] = system: G2A; settings: weak antagonist of G2A; cited from earlier work

Molecule: Cc1ccccc1CN1C(=O)C2=C(CCN(Cc3ccccc3)C2)N2CCN=C12 [ONC201]
- induction of apoptosis [1]: induction of apoptosis could be confirmed
- viable cells [2]: strong reduction in viable
- viable cells [3]: strong reduction in viable
- induction of apoptosis [4]: induction of apoptosis could be confirmed

Molecule: CCCCC/C=C\C=C\[C@H](O)CCCCCCCC(=O)O [9(R)-HODE]
- βarr2 recruitment response [5]: did not result in any observable NanoLuc complementation

Molecule: COc1ccc(-c2cc(C(=O)N[C@@H](Cc3ccccc3)C(=O)NC3CCCCC3)ccc2O)cc1 [Compound 56, (S)-N-(1-(Cyclohexylamino)-1-oxo-3-phenylpropan-2-yl)-6-hydroxy-4′-methoxy-[1,1′-biphenyl]-3-carboxamide]
- effect on TRPV1 sensitization by T-10418 (100 nM) and 9-HODE (400 nM) ([6]; cotreatment with 10 μM antagonist): completely abolished

Molecule: O=C(NC(Cc1ccccc1)C(=O)O)c1cccc(OCc2cccnc2)c1 (centres unmarked) [Compound 1]
- sensitization of capsaicin-induced TRPV1 responses ([6]; 1 μM compound, 2 min, capsaicin 100 nM 30 s): potently sensitize for capsaicin-induced TRPV1 responses; also recorded: comparable to that observed with 200 nM (±)9-HODE

Molecule: O=C1C2=C(CCN(Cc3ccccc3)C2)N2CCN=C2N1Cc1ccc(C(F)(F)F)cc1 [ONC212]
- activation of the Gq pathway (IP-1) [7]: could not detect any activation of the Gq pathway
- increase in IP-1 not mediated by the receptor [8]: substantial increase in IP-1
- activation of the Gq pathway (IP-1) [9]: could not detect any activation of the Gq pathway

Molecule: O=C(N[C@H](Cc1ccccc1)C(=O)O)c1cccc(OCc2cccnc2)c1 [Compound 3, (R)-3-Phenyl-2-(3-(pyridin-3-ylmethoxy)benzamido)propanoic Acid]
- activation of the Gq pathway (IP-1) [7]: could not detect any activation of the Gq pathway
- solubility [10]: > 3000 µM
- times more active than the (S) distomer 2 [11]: more than 30 times
- activation of the Gq pathway (IP-1) [9]: could not detect any activation of the Gq pathway
- partial agonism, share of maximal βarr2 recruitment observed with C9 [12]: approximately 50%
- CL ([13]; 10 mg/kg sc): 140.8 mL/min/kg
- behavior and clinical signs after dosing ([13]; iv or sc in PBS): no clinical signs observed
- rat liver microsomes (remaining after 60 min) [14]: 98% ^c

Molecule: lysophosphatidylcholine [LPC]
- IC50 [15]: > 10 µM

Molecule: CCCCC/C=C\C=C\C(O)CCCCCCCC(=O)O (centres unmarked) [9-HODE]
- βarr2 recruitment response [5]: unable to stimulate the same degree of β-arrestin recruitment
- activation of the Gq pathway (IP-1) [7]: could not detect any activation of the Gq pathway
- increase in IP-1 not mediated by the receptor [8]: not been observed
- activation of the Gq pathway (IP-1) [9]: could not detect any activation of the Gq pathway

Source: article PMC11249017 (Journal of Medicinal Chemistry, 2024)
